Here are results for 2 compounds from publication PMC3447774, “Genes Encoding Cher-TPR Fusion Proteins Are Predominantly Found in Gene Clusters Encoding Chemosensory Pathways with Alternative Cellular Functions” (PLoS ONE, 2012).

What all share (test): isothermal titration calorimetry
Common to all, as to type: binding
For orientation: In ITC the heat of successive injections is recorded.

One assay concerns the target T1, WspC-Ppmiddle (Pseudomonas putida, UniProt Q88MS8).
T1 construct: amino acids 1-355, CheR domain plus linker, lacks TPR domain
The source says: isothermal titration calorimetry on WspC-Ppmiddle

Another assay deals with T2, WspC-Pp (Pseudomonas putida, UniProt Q88MS8).
T2 construct: full-length CheR-linker-TPR protein; monomer
T2 sequence (Q88MS8 whole entry): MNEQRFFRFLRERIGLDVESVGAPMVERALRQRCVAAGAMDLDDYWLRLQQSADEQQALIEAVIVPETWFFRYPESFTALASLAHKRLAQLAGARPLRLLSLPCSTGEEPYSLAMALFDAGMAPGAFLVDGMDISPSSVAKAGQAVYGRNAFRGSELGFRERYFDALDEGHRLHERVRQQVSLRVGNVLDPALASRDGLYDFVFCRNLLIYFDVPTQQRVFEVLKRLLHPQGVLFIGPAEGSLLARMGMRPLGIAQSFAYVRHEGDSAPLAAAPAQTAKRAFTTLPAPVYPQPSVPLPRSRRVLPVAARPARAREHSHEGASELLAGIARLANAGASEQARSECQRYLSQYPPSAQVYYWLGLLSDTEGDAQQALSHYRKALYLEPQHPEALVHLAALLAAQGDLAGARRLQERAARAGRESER
The text has this:
isothermal titration calorimetry on WspC-Pp

In a further assay the target is T3, WspC-Ppshort (Pseudomonas putida, UniProt Q88MS8).
T3 construct: amino acids 1-240, CheR domain only, lacks linker and TPR domain
T3 sequence (Q88MS8 1-283): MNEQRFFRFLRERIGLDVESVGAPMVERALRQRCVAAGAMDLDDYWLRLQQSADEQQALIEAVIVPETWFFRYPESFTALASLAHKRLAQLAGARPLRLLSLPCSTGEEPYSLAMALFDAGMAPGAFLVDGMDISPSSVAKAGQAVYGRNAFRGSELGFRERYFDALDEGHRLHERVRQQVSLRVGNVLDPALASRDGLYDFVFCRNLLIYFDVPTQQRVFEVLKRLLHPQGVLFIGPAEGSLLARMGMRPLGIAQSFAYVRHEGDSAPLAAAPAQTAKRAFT
The text has this:
isothermal titration calorimetry on WspC-Ppshort

T1 sequence (Q88MS8 1-355): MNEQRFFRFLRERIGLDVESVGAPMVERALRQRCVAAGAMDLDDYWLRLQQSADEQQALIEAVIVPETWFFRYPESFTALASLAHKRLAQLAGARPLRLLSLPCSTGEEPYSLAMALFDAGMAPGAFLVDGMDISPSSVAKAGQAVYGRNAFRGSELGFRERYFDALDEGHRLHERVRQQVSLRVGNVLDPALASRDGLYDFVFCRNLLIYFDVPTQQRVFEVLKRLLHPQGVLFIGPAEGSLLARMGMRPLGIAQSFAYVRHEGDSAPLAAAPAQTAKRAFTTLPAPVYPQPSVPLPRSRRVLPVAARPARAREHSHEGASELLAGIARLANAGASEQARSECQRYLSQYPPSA

One may read the Kd as the constant that tells how readily two partners part at equilibrium. Read a low Kd as tighter binding. With `C[S+](CC[C@H](N)C(=O)O)C[C@H]1O[C@@H](n2cnc3c(N)ncnc32)[C@H](O)[C@@H]1O` (stereo partly drawn) [S-adenosylmethionine], the Kd worked out at 35 ± 2 µM at WspC-Ppmiddle, 43 ± 2 µM at WspC-Pp and 41 ± 4 µM on WspC-Ppshort.

Regarding `Nc1ncnc2c1ncn2[C@@H]1O[C@H](CSCC[C@H](N)C(=O)O)[C@@H](O)[C@H]1O` [S-adenosylhomocysteine], the results for the Kd on WspC-Ppmiddle, on WspC-Pp and on WspC-Ppshort were 1.6 ± 0.1 µM, 1.7 ± 0.1 µM and 2 ± 0.1 µM, respectively.
